Measurements from patent publication EP0188887A1, “Tertiary amine compounds” (IMPERIAL CHEMICAL INDUSTRIES PLC, priority 1985, dated 1986).

Assays:
Assay type in all cases: in vivo
[1] = test system: PUCCINIA RECONDITA (WHEAT); test: Foliar fungal disease test on plants (foliar spray plus root drench), Puccinia recondita on wheat; conditions: 100 ppm active ingredient sprayed on foliage, root drench approximately 40 ppm a.i./dry soil; applied one or two days before inoculation
Method: (§1) The compounds were tested against a variety of foliar fungal diseases of plants. The technique employed was as follows. The plants were grown in John Innes Potting Compost (No 1 or 2) in 4 cm diameter minipots. The test compounds were formulated either by bead milling with aqueous Dispersol T or as a solution in acetone or acetone/ethanol which was diluted to the required concentration immediately before use. For the foliage diseases, the formulations (100 ppm active ingredient) were sprayed on to the foliage and applied to the roots of the plants in the soil. The sprays were applied to maximum retention and the root drenches to a final concentration equivalent to approximately 40 ppm a.i./dry soil. Tween 20, to give a final concentration of 0.05%, was added when the sprays were applied to cereals. For most of the tests the compound was applied to the soil (roots) and to the foliage (by spraying) one or two days before the plant was inoculated with the disease. An exception was the test on Erysiphe graminis in which the plants were inoculated 24 hours before treatment. Foliar pathogens were applied by spray as spore suspensions onto the leaves of test plants. After inoculation, the plants were put into an appropriate environment to allow infection to proceed and then incubated until the disease was ready for assessment. The period between inoculation and assessment varied from four to fourteen days according to the disease and environment. The disease control was recorded by the following grading:- • 4 = no disease • 3 = trace - 5% of disease on untreated plants • 2 = 6-25% of disease on untreated plants • 1 = 26-59% of disease on untreated plants • 0 = 60-100% of disease on untreated plants

[2] = test system: ERYSIPHE GRAMINIS (BARLEY); test: Foliar fungal disease test on plants (foliar spray plus root drench), Erysiphe graminis on barley; conditions: 100 ppm active ingredient sprayed on foliage, root drench approximately 40 ppm a.i./dry soil; plants inoculated 24 hours before treatment
Method: as §1

[3] = test system: VENTURIA INAEQUALIS (APPLE); test: Foliar fungal disease test on plants (foliar spray plus root drench), Venturia inaequalis on apple; conditions: 100 ppm active ingredient sprayed on foliage, root drench approximately 40 ppm a.i./dry soil; applied one or two days before inoculation
Method: as §1

[4] = test system: CERCOSPORA ARACHIDICOLA (PEANUT); test: Foliar fungal disease test on plants (foliar spray plus root drench), Cercospora arachidicola on peanut; conditions: 100 ppm active ingredient sprayed on foliage, root drench approximately 40 ppm a.i./dry soil; applied one or two days before inoculation
Method: as §1

Structure (SMILES) | disease control grading, PUCCINIA RECONDITA (WHEAT) [1] | disease control grading, ERYSIPHE GRAMINIS (BARLEY) [2] | disease control grading, VENTURIA INAEQUALIS (APPLE) [3] | disease control grading, CERCOSPORA ARACHIDICOLA (PEANUT) [4]
C[C@@H]1CN(C[C@@H]2C[C@H]2c2ccc(C(C)(C)C)cc2)C[C@H](C)O1 (relative stereo) [Compound 4, 4-[2-(p-t-butylphenyl)-trans-cyclopropylmethyl]-2,6-cis-dimethylmorpholine] | 3 (3 = trace - 5% of disease on untreated plants) | 4 (4 = no disease) | 3 (3 = trace - 5% of disease on untreated plants) | 0 (0 = 60-100% of disease on untreated plants)
CC(C)(C)c1ccc(C2C(CN3CCOCC3)C2(C)C)cc1 (stereo not drawn) [Compound 8, 4-[2-(p-t-butylphenyl)-3,3-dimethylcyclopropylmethyl]-morpholine] | 0 (0 = 60-100% of disease on untreated plants) | 4 (4 = no disease) | 3 (3 = trace - 5% of disease on untreated plants) | 3 (3 = trace - 5% of disease on untreated plants)
C[C@@H]1CN(C[C@@H]2C[C@@]2(C)c2ccc(C(C)(C)C)cc2)C[C@H](C)O1 (relative stereo) [Compound 15] | 3 (3 = trace - 5% of disease on untreated plants) | 4 (4 = no disease) | 3 (3 = trace - 5% of disease on untreated plants) | –
CC(C)(C)c1ccc(C2CC2CC2CCNCC2)cc1 (stereo not drawn) [Compound 1, 4-[2-(p-t-butylphenyl)-cyclopropylmethyl]-piperidine] | 4 (4 = no disease) | 4 (4 = no disease) | 0 (0 = 60-100% of disease on untreated plants) | 1 (1 = 26-59% of disease on untreated plants)
